Measurements from paper PMC6364417, “Kinase inhibitor library screening identifies synergistic drug combinations effective in sensitive and resistant melanoma cells” (Journal of Experimental & Clinical Cancer Research : CR, 2019).

Tests used:
Experiment in all cases: Kinase inhibitor library screening, PrestoBlue cell viability, 1 or 10 μM, 72 h
A375 cells (parental) = settings: A375 Parental, 72 h
[1] = system: 501Mel-GP cells (Dabrafenib-resistant); settings: 501Mel GP, 72 h, in %
[2] = system: A375-GP cells (Dabrafenib-resistant); settings: A375 GP, 72 h
[3] = system: IGR37-XP cells (Vemurafenib-resistant); settings: IGR37 XP, 72 h; for Cell viability in kinase inhibitor library screening, IGR37 XP, 1μΜ: in %
[4] = system: A375-XP cells (Vemurafenib-resistant); settings: A375 XP, 72 h
[5] = system: IGR37-GP cells (Dabrafenib-resistant); settings: IGR37 GP, 72 h; for Cell viability in kinase inhibitor library screening, IGR37 GP, 1μΜ: in %
[6] = system: 501Mel-XP cells (Vemurafenib-resistant); settings: 501Mel XP, 72 h, in %
501Mel cells (parental) = settings: 501Mel Parental, 72 h, in %
Procedure, shortened: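 Single-point screen at two doses over three days. Parental and BRAF-inhibitor-resistant sublines (XP: Vemurafenib; GP: Dabrafenib) were assessed by PrestoBlue viability, reported relative to untreated cells.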

IGR37 cells (parental) = settings: IGR37 Parental, 72 h, in %

SMILES | Cell viability in kinase inhibitor library screening, A375 Parental, 10μΜ (A375 cells (parental)) | Cell viability in kinase inhibitor library screening, A375 Parental, 1μΜ (A375 cells (parental)) | Cell viability in kinase inhibitor library screening, 501Mel GP, 1μΜ [1] | Cell viability in kinase inhibitor library screening, 501Mel GP, 10μΜ [1] | Cell viability in kinase inhibitor library screening, A375 GP, 1μΜ [2] | Cell viability in kinase inhibitor library screening, A375 GP, 10μΜ [2] | Cell viability in kinase inhibitor library screening, IGR37 XP, 10μΜ [3] | Cell viability in kinase inhibitor library screening, IGR37 XP, 1μΜ [3] | Cell viability in kinase inhibitor library screening, A375 XP, 1μΜ [4] | Cell viability in kinase inhibitor library screening, A375 XP, 10μΜ [4] | Cell viability in kinase inhibitor library screening, IGR37 GP, 10μΜ [5] | Cell viability in kinase inhibitor library screening, IGR37 GP, 1μΜ [5] | Cell viability in kinase inhibitor library screening, 501Mel XP, 1μΜ [6] | Cell viability in kinase inhibitor library screening, 501Mel XP, 10μΜ [6] | Cell viability in kinase inhibitor library screening, 501Mel Parental, 1μΜ (501Mel cells (parental)) | Cell viability in kinase inhibitor library screening, 501Mel Parental, 10μΜ (501Mel cells (parental)) | Cell viability in kinase inhibitor library screening, IGR37 Parental, 1μΜ (IGR37 cells (parental)) | Cell viability in kinase inhibitor library screening, IGR37 Parental, 10μΜ (IGR37 cells (parental))
CCn1nnc2c(N3CCOCC3)nc(-c3ccc(NC(=O)Nc4ccc(C(=O)N5CCN(C)CC5)cc4)cc3)nc21 [PKI-402] | 12.7 | 21.3 | 21.4 | 0.548 | 23.7 | 9.7 | 1.9% | 25.5 | 20.0 | 8.5 | 3.4% | 66.1 | 15.3 | -0.1 | 15.4 | 0.476 | 35.8 | 2.7
CCCS(=O)(=O)Nc1ccc(F)c(C(=O)c2c[nH]c3ncc(Cl)cc23)c1F [PLX-4720] | 14.6 | 32.1 | 104.7 | 77.9 | 83.9 | 78.1 | 52.5% | 99.4 | 102.9 | 79.1 | 79% | 97.0 | 96.2 | 64.4 | 63.2 | 55.8 | 44.1 | 31.4
COc1ccc(COc2cc3oc(=O)c4cc(C(C)O)ccc4c3cc2OC)cc1 (centres unmarked) [Palomid 529] | 83.6 |  | 90.2 | 80.5 | 94.7 | 88.6 | 46.5% | 98.2 | 100.3 | 90.5 | 75.1% | 87.7 | 95.5 | 30.6 | 87.4 | 80.1 | 102.9 | 103.1
